Reference: patent US11744273B2, “Sweetness enhancing volatile compositions and methods of increasing perceived sweetness of a comestible” (University of Florida Research Foundation, Inc., priority 2016, dated 2023)

Tests used:
Assay type in all cases: in vivo, human
overall liking = assay: Blueberry sensory panels; PLS analysis, overall liking (Table 7); conditions: response Overall Liking
Procedure: (§1) Sensory analysis was conducted similar to described above for tomatoes and strawberries in Examples 1 and 3. […] Panelists were trained with the scaling methods and were encouraged to return for the remainder of the study. Panelists rated overall liking, texture liking, sweetness, sourness, and flavor intensity using hedonic general Labeled Magnitude Scales (gLMS) (−100 to +100; −100=greatest disliking of any kind, +100=greatest liking of any kind) and intensity gLMS (0 to +100; 0=no sensation, 100=most intense sensation of any kind), which allow for improved comparison between panelists and between years (see Bartoshuk, L. M., et al., 2004 and Bartoshuk, L. M., et al., 2005). […] Ratings were recorded using Compusense software.
(§2) Soluble solids content (SSC), titratable acidity (TA), and volatiles were quantified as described above for tomato and strawberries. […] Elutions were run on an Agilent 7890A Gas Chromatograph Flame Ionization Detector (GC-FID) DB-5 column (30 m length×[…]) for quantification and on an Agilent 7890A Gas Chromatograph coupled to an Agilent 5977A Mass Selective Detector (GC/MSD) for qualification (Agilent, Santa Clara, Calif.). Integrated peak area of each signal was normalized for elution, fitted to relative pure chemical response, corrected for sample mass, and expressed as nanograms per gram fresh weight per hour (ng gFW-1 h-1). […]

sweetness = assay: Blueberry sensory panels; PLS analysis, sweetness (Table 7); conditions: for PLS Coefficient: response Sweetness
Procedure: Sensory analysis was conducted similar to described above for tomatoes and strawberries in Examples 1 and 3. […] Panelists were trained with the scaling methods and were encouraged to return for the remainder of the study. Panelists rated overall liking, texture liking, sweetness, sourness, and flavor intensity using hedonic general Labeled Magnitude Scales (gLMS) (−100 to +100; −100=greatest disliking of any kind, +100=greatest liking of any kind) and intensity gLMS (0 to +100; 0=no sensation, 100=most intense sensation of any kind), which allow for improved comparison between panelists and between years (see Bartoshuk, L. M., et al., 2004 and Bartoshuk, L. M., et al., 2005). Panelists were also asked to rate the intensity of taste and flavor sensations of a hypothetical ideal blueberry on this scale. Each panelist received two to four berries of five to six genotypes in a single panel in a Williams design, which was generated by Compusense 5.6 (Compusense Inc., Guelph, Ontario, Canada). They were asked to eat the blueberries of each genotype at once, and to take a bite of cracker and sip of water in between samples. Ratings were recorded using Compusense software.
Soluble solids content (SSC), titratable acidity (TA), and volatiles were quantified as described above for tomato and strawberries. The volatiles were collected for two hours via dynamic headspace with HaySep Q 80-100 porous polymer adsorbent (Valco Instruments Company Inc., Houston, Tex.) and eluted with methylene chloride and nonyl acetate as an elution standard. Elutions were run on an Agilent 7890A Gas Chromatograph Flame Ionization Detector (GC-FID) DB-5 column (30 m length×[…]) for quantification and on an Agilent 7890A Gas Chromatograph coupled to an Agilent 5977A Mass Selective Detector (GC/MSD) for qualification (Agilent, Santa Clara, Calif.). Integrated peak area of each signal was normalized for elution, fitted to relative pure chemical response, corrected for sample mass, and expressed as nanograms per gram fresh weight per hour (ng gFW-1 h-1). Response fitting was calculated using the response factor of pure chemical standards (Sigma-Aldrich, St. Louis, Mo.) run on the same instrument.
Pair-wise correlations and significance between sensory measurements and primary bio-chemical components were calculated, with panelist as a random effect. Least Square Means (LSMeans) of the sensory data for each sample were obtained to account of the random effect of panelist. A partial least squares (PLS) analysis was constructed in JMP1 Pro 10 (SAS Institute Inc., Cary, N.C.) to reveal effectors of sensory ratings (see, e.g., Togari N., et al., 1995; Hough, G., et al., 1996; deKermadec, F., et al., 1997; Toscas, P. J., et al., 1999; and Tenenhaus, M., et al., 2005). The response variables (Y) considered corresponded to LSMeans of overall liking, sweetness, sourness, and blueberry flavor intensity. Glucose, fructose, sucrose, TA, pH, and 52 volatile compounds were considered as explanatory variables (X). The inclusion of texture liking was evaluated independently given that no explanatory physical measure was made for sample texture. […] The model was created without texture for analysis.
• Top six and bottom six biochemical measures explaining sensory responses as determined by partial least squares (PLS) analysis. […]

sourness = assay: Blueberry sensory panels; PLS analysis, sourness (Table 7); conditions: response Sourness
Description: Panelists were trained with the scaling methods and were encouraged to return for the remainder of the study. […] Panelists were also asked to rate the intensity of taste and flavor sensations of a hypothetical ideal blueberry on this scale. Each panelist received two to four berries of five to six genotypes in a single panel in a Williams design, which was generated by Compusense 5.6 (Compusense Inc., Guelph, Ontario, Canada). They were asked to eat the blueberries of each genotype at once, and to take a bite of cracker and sip of water in between samples. Ratings were recorded using Compusense software.
Soluble solids content (SSC), titratable acidity (TA), and volatiles were quantified as described above for tomato and strawberries. […] Integrated peak area of each signal was normalized for elution, fitted to relative pure chemical response, corrected for sample mass, and expressed as nanograms per gram fresh weight per hour (ng gFW-1 h-1). Response fitting was calculated using the response factor of pure chemical standards (Sigma-Aldrich, St. Louis, Mo.) run on the same instrument.
Pair-wise correlations and significance between sensory measurements and primary bio-chemical components were calculated, with panelist as a random effect. […] The inclusion of texture liking was evaluated independently given that no explanatory physical measure was made for sample texture. […]

[1] = test system: blueberry flavor intensity; assay: Blueberry sensory panels; PLS analysis, blueberry flavor intensity (Table 7); conditions: response Flavor
Procedure: as §1, §2

[2] = test system: perceived sweetness intensity; assay: Strawberry consumer panel; initial multiple regression of volatiles against perceived sweetness intensity independent of glucose, fructose or sucrose (Table 5); conditions: standard least squares; for FRUCTOSE t RATIO: sweetness intensity independent of fructose; for GLUCOSE t RATIO: sweetness intensity independent of glucose; for SUCROSE t RATIO: sweetness intensity independent of sucrose
Procedure: Step-wise multiple regressions of all volatile compounds against perceived intensity of sweetness is performed independent of either glucose, fructose, or sucrose concentration, separately (Table 5).
At least 100 grams or seven berries of each sample were removed from 4° C. dark overnight storage prior to volatile collection. Samples were homogenized in a blender prior to splitting into three 15 gram replicates for immediate capturing of volatile emission and remainder of sample frozen in N2 (I) and stored at −80° C. for later sugar and acid quantification.
Oven temperatures programmed from 40° C. (0.5 min hold) at 5° C. min^−1 to 250° C. (4 min hold). Signals captured with a flame ionization detector (FID) at 280° C. Peaks from FID signal were integrated manually with Chemstation B.04.01 software (Agilent Technologies, Santa Clara, Calif.). Volatile emission (ng gFW^−1 h^−1) calculated based on individual peak area relative to sample elution standard peak area.
All consumer panels were approved by the University of Florida Institutional Review Board. […] Ages of panelist ranged from 18 to 71, with a median age of 24. Panelists self-classified themselves as 98 White or Caucasian, 11 Black or African-American, 1 Native American, Alaska Native or Aleutian, 41 Asian/Pacific Islander, and 15 Other. […] Fresh, fully-ripe strawberry fruit was removed from overnight 4° C. dark storage and allowed to warm to room temperature prior to sensory analysis. Each panelist was given one to two whole strawberries for evaluation, depending on cultivar availability. Panelist took a bite of each sample, chewed, and swallowed it. Ratings for overall liking and liking for texture were scaled on hedonic general labeled magnitude scale (gLMS) in the context of all pleasure/displeasure experiences. […] Scales were employed to mediate valid comparisons across subjects and sessions.
For the first analysis, individual volatile compound concentrations were regressed using the “enter” method in SPSS Statistics (IBM Corp, Armonk, N.Y., USA).

[3] = test system: strawberry flavor intensity; assay: Strawberry consumer panel; correlation of volatiles with strawberry flavor intensity
Procedure: Quantification of volatiles in an elution was performed on an Agilent 7890A Series gas chromatograph (GC) (carrier gas; He at 3.99 mL min^−1; splitless injector, temperature 220° C., injection volume 2 μl) equipped with a DB-5 column ((5%-Phenyl)-methylpolysiloxane, 30 m length×250 μm i.d.×1 μm film thickness; Agilent Technologies, Santa Clara, Calif., USA). Oven temperatures programmed from 40° C. (0.5 min hold) at 5° C. min^−1 to 250° C. (4 min hold). Signals captured with a flame ionization detector (FID) at 280° C. Peaks from FID signal were integrated manually with Chemstation B.04.01 software (Agilent Technologies, Santa Clara, Calif.). Volatile emission (ng gFW^−1 h^−1) calculated based on individual peak area relative to sample elution standard peak area. GC-Mass Spectrometry (MS) analysis of elution on an Agilent 6890N GC in tandem with an Agilent 5975 MS (Agilent Technologies, Santa Clara, Calif., USA) and retention time comparison with authentic standards (Sigma Aldrich, St Louis, Mo., USA) for volatile identification (Schmelz, 2001).
All consumer panels were approved by the University of Florida Institutional Review Board. Over the course of two annual seasons 166 strawberry consumers (58 male, 108 female) were recruited to evaluate strawberry cultivars. Ages of panelist ranged from 18 to 71, with a median age of 24. Panelists self-classified themselves as 98 White or Caucasian, 11 Black or African-American, 1 Native American, Alaska Native or Aleutian, 41 Asian/Pacific Islander, and 15 Other. An average of 106 (range of 98-113) panelists evaluated between three and five cultivars per session (Tieman, 2012). Fresh, fully-ripe strawberry fruit was removed from overnight 4° C. dark storage and allowed to warm to room temperature prior to sensory analysis. Each panelist was given one to two whole strawberries for evaluation, depending on cultivar availability. Panelist took a bite of each sample, chewed, and swallowed it. Ratings for overall liking and liking for texture were scaled on hedonic general labeled magnitude scale (gLMS) in the context of all pleasure/displeasure experiences. Perceived intensity of sweetness, sourness, and strawberry flavor were scaled in context of all sensory experiences using sensory gLMS (Bartoshuk, 2003; Bartoshuk, 2005; Tieman, 2012). Scales were employed to mediate valid comparisons across subjects and sessions.
Means and standard errors for consumer, physical, and metabolite measurements were determined from all replicates using JMP (Version 8. SAS Institute Inc., Cary, N.C., 1989-2008). Bivariate analysis among individual measurements of samples allowed for linear fit, which includes summary of fit, analysis of variance, t-test, and correlation analysis for density ellipse. […]

SMILES | PLS Coefficient (overall liking) | PLS Coefficient (sweetness) | PLS Coefficient (sourness) | PLS Coefficient [1] | FRUCTOSE t RATIO [2] | GLUCOSE t RATIO [2] | SUCROSE t RATIO [2] | correlation with flavor intensity [3] | independent enhancement of perception of sweetness (sweetness; multivariate regression analysis)
CC12CCC(CC1)C(C)(C)O2 [1,8-Cineole] | −0.1912 | −0.1925 | 0.1444 | −0.0876 | – | – | – | – | –
CCCC(=O)OCC [105-54-4] | – | – | – | – | 2.533 | 2.493 | 0.034 | significant positive correlation with flavor intensity | –
CCCC(=O)OC [623-42-7] | – | – | – | – | 1.455 | 1.452 | 0.419 | significant positive correlation with flavor intensity | –
COC1=C(C)OC(C)C1=O (stereo not drawn) [4077-47-8] | – | – | – | – | 2.414 | 2.185 | 0.299 | significant positive correlation with flavor intensity | –
C=CC(C)(O)CCC=C(C)C (stereo not drawn) [Linalool] | – | – | – | – | – | – | – | significant positive correlation with flavor intensity | –
C=C1CC[C@H]2O[C@]2(C)CC[C@@H]2[C@@H]1CC2(C)C [β-Caryophyllene oxide, β-caryophyllene oxide] | 0.1455 | 0.1418 | – | 0.1527 | – | – | – | – | independently enhancing perception of sweetness
